# Data published in BindingDB's records for doi:10.1021/ml200030q (2011).
# Experiment: Antagonist activity at mouse CCR2 assessed as inhibition of MCP1-induced chemotaxis after 30 mins
row,IC50,SMILES
1,156 nM,Cc1ccc([C@]2(O)CC[C@H](N3CC[C@@H](NC(=O)CNC(=O)c4cccc(C(F)(F)F)c4)C3)CC2)cc1

# Experiment: Antagonist activity at CCR2 in human PBMC assessed as inhibition of MCP1-induced chemotaxis after 30 mins
row,IC50,SMILES
1,5.8 nM,O=C(CNC(=O)c1cccc(C(F)(F)F)c1)N[C@@H]1CCN([C@H]2CC[C@@](O)(c3cccnn3)CC2)C1
2,7.2 nM,O=C(CNC(=O)c1cccc(C(F)(F)F)c1)N[C@@H]1CCN([C@H]2CC[C@@](O)(c3ccnnc3)CC2)C1
3,2.7 nM,CCOc1ccc([C@]2(O)CC[C@H](N3CC[C@@H](NC(=O)CNC(=O)c4cccc(C(F)(F)F)c4)C3)CC2)cn1

# More lines, now with the values behind:
row,SMILES,IC50
1,O=C(CNC(=O)c1cccc(C(F)(F)F)c1)N[C@@H]1CCN([C@H]2CC[C@@](O)(c3cccnc3)CC2)C1,3.9 nM
2,O=C(CNC(=O)c1cccc(C(F)(F)F)c1)N[C@@H]1CCN([C@H]2CC[C@@](O)(c3ccncc3)CC2)C1,3 nM
3,O=C(CNC(=O)c1cccc(C(F)(F)F)c1)N[C@@H]1CCN([C@H]2CC[C@@](O)(c3ncccn3)CC2)C1,9.3 nM
4,O=C(CNC(=O)c1cccc(C(F)(F)F)c1)N[C@@H]1CCN([C@H]2CC[C@@](O)(c3cncnc3)CC2)C1,20 nM
5,Cc1ccc([C@]2(O)CC[C@H](N3CC[C@@H](NC(=O)CNC(=O)c4cccc(C(F)(F)F)c4)C3)CC2)cn1,5.6 nM
